In patent US9808003B2, “Herbicidally active 2-(substituted-phenyl)-cyclopentane-1,3-dione compounds and derivatives thereof” (Syngenta Limited, priority 2013, dated 2017):

Experiments:
Format in all cases: in vivo
[1] = tested on: Echinochloa crus-galli (ECHCG); assay: Test 1A glasshouse assay, pre-emergence herbicidal activity; settings: 312 h, 13 days after application, read-out: Pre-emergence herbicidal activity (% phytotoxicity) ECHCG
Procedure: (§1) Seeds of a variety of test species were sown in standard soil in pots. After cultivation for one day (pre-emergence) or after 8 days cultivation (post-emergence) under controlled conditions in a glasshouse (at 24/16° C., day/night; 14 hours light; 65% humidity), the plants were sprayed with an aqueous spray solution derived from the formulation of the technical active ingredient in acetone/water (50:50) solution containing 0.5% Tween 20 (polyoxyethelyene sorbitan monolaurate, CAS RN 9005-64-5). The test plants were then grown under controlled conditions in a glasshouse (at 24/16° C., day/night; 14 hours light; 65% humidity) and watered twice daily. 13 days after application of the test herbicide, for pre- and post-emergence, the test was evaluated visually for percentage phytotoxicity to the plant (where 100%=total damage to plant; 0%=no damage to plant).
(§2) Test plants: Lolium perenne (LOLPE), Alopecurus myosuroides (ALOMY), Echinochloa crus-galli (ECHCG), and Avena fatua (AVEFA); these are all grassy monocotyledonous weeds.

Avena fatua (AVEFA) [2] = assay: as above; settings: 312 h, 13 days after application, read-out: Pre-emergence herbicidal activity (% phytotoxicity) AVEFA
Procedure: as §1, §2

Lolium perenne (LOLPE) [3] = assay: as above; settings: 312 h, 13 days after application, read-out: Pre-emergence herbicidal activity (% phytotoxicity) LOLPE
Procedure: as §1, §2

[4] = tested on: Alopecurus myosuroides (ALOMY); assay: as above; settings: 312 h, 13 days after application, read-out: Pre-emergence herbicidal activity (% phytotoxicity) ALOMY
Procedure: as §1, §2

[5] = tested on: Echinochloa crus-galli (ECHCG); assay: Test 1A glasshouse assay, post-emergence herbicidal activity; settings: Echinochloa crus-galli, 312 h, application rate 250 g/ha, 13 days after application, visual (100%=total damage; 0%=no damage), read-out: Post-emergence Herbicidal Activity (% Phytotoxicity) ECHCG
Method in brief: (§3)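 Post-emergence spray at 8 d after sowing; vehicle acetone/water 50:50 + 0.5% Tween 20. Glasshouse 24/16 °C, 14 h light, 65% RH, watered 2×/day. Visual phytotoxicity (%) at 13 DAA.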

Avena fatua (AVEFA) [6] = assay: as above; settings: Avena fatua, 312 h, application rate 250 g/ha, 13 days after application, visual (100%=total damage; 0%=no damage), read-out: Post-emergence Herbicidal Activity (% Phytotoxicity) AVEFA
Method in brief: as §3

Lolium perenne (LOLPE) [7] = assay: as above; settings: Lolium perenne, 312 h, application rate 250 g/ha, 13 days after application, visual (100%=total damage; 0%=no damage), read-out: Post-emergence Herbicidal Activity (% Phytotoxicity) LOLPE
Method in brief: as §3

[8] = tested on: Alopecurus myosuroides (ALOMY); assay: as above; settings: Alopecurus myosuroides, 312 h, application rate 250 g/ha, 13 days after application, visual (100%=total damage; 0%=no damage), read-out: Post-emergence Herbicidal Activity (% Phytotoxicity) ALOMY
Method in brief: as §3

Row | SMILES | inhibition at 1000 g/ha ([1]; 1000 g/ha) [%] | inhibition at 1000 g/ha (Avena fatua (AVEFA) [2]; 1000 g/ha) [%] | inhibition at 1000 g/ha (Lolium perenne (LOLPE) [3]; 1000 g/ha) [%] | inhibition at 1000 g/ha ([4]; 1000 g/ha) [%] | pest or weed control at 250 g/ha [5] [%] | pest or weed control at 250 g/ha (Avena fatua (AVEFA) [6]) [%] | pest or weed control at 250 g/ha (Lolium perenne (LOLPE) [7]) [%] | pest or weed control at 250 g/ha [8] [%] | inhibition at 250 g/ha [1] [%] | inhibition at 250 g/ha (Avena fatua (AVEFA) [2]) [%] | inhibition at 250 g/ha (Lolium perenne (LOLPE) [3]) [%] | inhibition at 250 g/ha [4] [%]
1 | Cc1cc(C)c(C2C(=O)CC(CCNC(=O)c3ccccc3)C2=O)c(C)c1 (centres unmarked) [Compound A1, N-[2-[2,4-dioxo-3-(2,4,6-trimethylphenyl)cyclopentyl]ethyl]-benzamide] | 100 | 70 | 100 | 90 | 100 | 90 | 100 | 80 |  |  |  | 
2 | Cc1cc(C)c(C2C(=O)CC(CCNC(=O)C(C)(C)C)C2=O)c(C)c1 (centres unmarked) [Compound A2] |  |  |  |  | 80 | 80 | 100 | 90 | 70 | 70 | 100 | 90
3 | Cc1cc(C)c(C2C(=O)CC(CCNC(=O)c3ccccn3)C2=O)c(C)c1 (centres unmarked) [Compound A3] |  |  |  |  | 100 | 100 | 100 | 90 | 100 | 90 | 100 | 90
4 | Cc1cc(C)c(C2C(=O)CC(CCNC(=O)C3CCCCC3)C2=O)c(C)c1 (centres unmarked) [Compound A13] |  |  |  |  | 100 | 70 | 90 | 70 | 100 | 80 | 90 | 80
